Drawing on PubChem BioAssay AID1959 (Broad Institute, 2009), this text covers EC50 for 81 compounds.

The source made the active and inactive calls.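 The calls were made as follows: active = growth-inhibition EC50 no more than tenfold above the top tested dose; inconclusive = flat fit between 30% and 70% inhibition, or unreliable fit; inactive = EC50 more than tenfold above the top tested dose.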 Bounds are passed on as bounds.

The assay deals with E. coli NEB5alpha growth, BacTiter-Glo luminescence, 4 h. Nature of the assay: Escherichia coli growth inhibition, dose response, counter-screen for MEX-5/POS-1 RNA-binding inhibitor project, luminescence, NEB5alpha (AID 1959;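 also: pUC19-transformed ampicillin-resistant cells grown in LB with ampicillin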). (A counterscreen serves to expose hits that act by an unwanted route or on another target.)
Regarding `CC1=C(C#N)C(=O)NC(=O)/C1=C\c1ccc(-c2cc(C)c(C)cc2[N+](=O)[O-])o1`, the EC50 is > 11 µM (inactive).

Turning to `Cc1cc(/C=C2/C(=O)NC(=O)N(Cc3ccco3)C2=O)c(C)n1-c1ccc(C(=O)O)cc1`, the EC50 was > 11 µM (inactive).

In the case of `O=C(NNC(=O)c1cc(Cl)ccc1O)c1cccc(S(=O)(=O)N2CCOCC2)c1`, the EC50 was > 11 µM (inactive).

For the compound `Cc1cc(C(=O)N/N=C/c2cc(Cl)cc([N+](=O)[O-])c2O)n[nH]1`, the EC50 is > 11 µM (inactive).

Take `COc1cc(/C=C2\C(=O)NN(c3ccccc3)C2=O)cc([N+](=O)[O-])c1O`: the EC50 was > 11 µM (inactive).

`COc1cccc(OCCn2cc(C=O)c3ccccc32)c1`: the EC50 was > 11 µM (inactive).

As for `N#Cc1c(N)nc(SCc2ccncc2)c(C#N)c1-c1cccs1`, the EC50 is > 11 µM (inactive).

For `Cc1cc2nc3ccc(N(C)C)cc3nc2cc1N`, the EC50 was > 11 µM (inactive).

Take `CCOc1ccccc1N1CCN(C(=O)CNC(=O)c2ccccc2F)CC1`: the EC50 was > 11 µM (inactive).

Consider `Cc1ccc(NC(=O)Cn2c(=O)c(C)nc3ccccc32)cc1`, for which the EC50 was > 11 µM (inactive).

As for `Cc1[nH]c2ccccc2c1/C=N/NC(=S)NC(C)C`, the EC50 is > 11 µM (inactive).

As for `Cc1c(N=Cc2c(O)n(Cc3ccco3)c(=O)[nH]c2=O)c(=O)n(-c2ccccc2)n1C`, the EC50 is > 11 µM (inactive).

`Cc1cc(/C=N/NC(=O)c2cccc(N(C)C)c2)c(C)n1-c1cc(C(=O)O)cc(C(=O)O)c1`: the EC50 is > 11 µM (inactive).

Regarding `Nc1ccc2nc(-c3cccc(-c4nc5ccc(N)cc5[nH]4)n3)[nH]c2c1`, the EC50 was > 11 µM (inactive).

With `C=CCn1c(=O)/c(=C/c2ccc(C)o2)s/c1=C(/C#N)C(=O)c1ccccc1`, the EC50 is > 11 µM (inactive).

As to `Oc1ccc(/C=N/Nc2ccc(Cl)nn2)c(O)c1O`, the EC50 was > 11 µM (inactive).

On to `O=C(N/N=C\c1cc([N+](=O)[O-])ccc1N1CCCC1)c1ccccn1`, for which the EC50 is > 11 µM (inactive).

As to `O=C(O)c1ccc(N/N=C/C2=C(N3CCOCC3)C(=C\c3ccccc3)/CC2)cc1`, the EC50 was > 11 µM (inactive).

Take `CN1C(=O)C(=Cc2cn(CC(=O)N3CCCCC3)c3ccccc23)C(=O)N(C)C1=O`: the EC50 is > 11 µM (inactive).

For the compound `COc1ccc(CCNC(=O)c2nn(C)c3c2CS(=O)(=O)c2ccccc2-3)cc1OC`, the EC50 is > 11 µM (inactive).

`Cc1ccc(N2C(=O)c3cccc4c(N5CCN(C)CC5)ccc(c34)C2=O)c2cccnc12`: the EC50 is > 11 µM (inactive).

`C=CCN=c1scc(-c2ccco2)n1/N=C/c1ccc(O)c(O)c1O`: the EC50 is > 11 µM (inactive).

Regarding `O=C1CNC(=S)N1CCc1ccc(O)c(O)c1`, the EC50 was > 11 µM (inactive).

Take `O=c1oc2ccccc2cc1-c1nc(-c2cccs2)cs1`: the EC50 is > 11 µM (inactive).

In the case of `COc1cccc(N2C(=O)NC(=O)/C(=C/c3ccc([N+](=O)[O-])s3)C2=O)c1`, the EC50 was > 11 µM (inactive).

On to `Cc1ccc(CNC(=O)/C(C#N)=C\c2ccc(N(C)C)cc2)cc1`, for which the EC50 is > 11 µM (inactive).

With `CC(C)OC(=O)CC(=O)c1sc2nc3c(cc2c1N)CN(C)CC3`, the EC50 is > 11 µM (inactive).

Take `O=C(Nc1ccnn1C1CCN(CC2CC=CCC2)CC1)c1ccccc1` (stereo unspecified): the EC50 was > 11 µM (inactive).

On to `O=C(c1ccco1)N1CCc2ccccc21`, for which the EC50 is > 11 µM (inactive).

Regarding `Cc1cccc(NC(=O)CN2C(=O)N/C(=C\c3cccn3-c3cccc(C(=O)O)c3)C2=O)c1`, the EC50 was > 11 µM (inactive).

As for `O=C(CN1C(=O)/C(=C\C=C\c2ccccc2)SC1=S)Nc1ccc(F)cc1`, the EC50 is > 11 µM (inactive).

As for `CCCCNC(=S)NNC(=O)c1cc(C)on1`, the EC50 was > 11 µM (inactive).

With `Cn1nc(-c2ccc(Cl)cc2)nc2c(=O)n(C)c(=O)nc1-2`, the EC50 was > 11 µM (inactive).

With `O=C1CCC/C1=c1\s/c(=C\c2cccnc2)c(=O)n1-c1ccccc1`, the EC50 was > 11 µM (inactive).

Regarding `CCn1c(SCc2ccc(C)cc2)nnc1C1CCN(S(=O)(=O)c2ccc(OC)cc2)CC1`, the EC50 is > 11 µM (inactive).

Consider `COc1ccc(N=Cc2c(O)n(Cc3ccccc3)c(=S)[nH]c2=O)c(OC)c1`, for which the EC50 was > 11 µM (inactive).

Consider `Cc1cc(C(=O)O)ccc1-n1c(C)cc(/C=C2\SC(=O)NC2=O)c1C`, for which the EC50 was > 11 µM (inactive).

For `COc1ccc(C(=O)/C=C/Nc2ccc([N+](=O)[O-])cc2C)c(OC)c1`, the EC50 was > 11 µM (inactive).

For `CC(=O)Nc1ccc(N/C=C/C(=O)c2ccc(C)o2)cc1`, the EC50 is > 11 µM (inactive).

`CCC(=O)OC1(C)C(=O)C2=COC(c3ccc(OC)cc3)=CC2=C(Br)C1=O` (stereo unspecified): the EC50 was > 11 µM (inactive).

For the compound `Cc1n[nH]c(=S)c2nn(-c3cccc(Cl)c3)c(C)c12`, the EC50 was > 11 µM (inactive).

In the case of `CCOC(=O)/C=c1\s/c(=C\c2ccc3cc(OC)ccc3c2)c(=O)n1CC(=O)NCC1CCCO1` (stereo unspecified), the EC50 is > 11 µM (inactive).

Take `CCOC(=O)c1ccc2c(c1)C1C=CCC1C(C(=O)OCC)N2` (stereo unspecified): the EC50 is > 11 µM (inactive).

For the compound `COc1ccc(C(=O)/C=C/c2ccc(-c3ccccc3)cc2)cc1CSCC(=O)O`, the EC50 is > 11 µM (inactive).

For the compound `CC(C)N1CCc2c(sc(NC(=O)c3ccc(S(=O)(=O)N(C)CC4CCCO4)cc3)c2C(N)=O)C1` (stereo unspecified), the EC50 was > 11 µM (inactive).

In the case of `C=CCn1c(=S)[nH]c2nc3c(cc2c1=O)COC(C)(C)C3`, the EC50 was > 11 µM (inactive).

Consider `CC(C)c1nnc(N2C(=O)C(O)=C(C(=O)c3cccs3)C2c2ccccc2)s1` (stereo unspecified), for which the EC50 was > 11 µM (inactive).

In the case of `N#Cc1c(N)n(-c2ccc(C(=O)O)cc2)c2nc3ccccc3nc12`, the EC50 is > 11 µM (inactive).

Turning to `N#C/C(=C/c1cccn1-c1cccc(C(=O)O)c1)c1ccc(F)cc1`, the EC50 was > 11 µM (inactive).

Take `CCOCCCn1c(=NC(=O)c2cccs2)c(C#N)cc2c(=O)n3ccccc3nc21`: the EC50 was > 11 µM (inactive).

In the case of `O=c1c2ccccc2oc2ccc(NCCCn3ccnc3)cc12`, the EC50 is > 11 µM (inactive).

Consider `Cc1ccc(CN2C(=O)N/C(=C\c3cccn3-c3cccc(C(=O)O)c3)C2=O)cc1`, for which the EC50 is > 11 µM (inactive).

For the compound `O=C1c2ccccc2C(=O)c2c1cccc2N(CCO)CCO`, the EC50 is > 11 µM (inactive).

On to `C=CCOc1cccc(C2C(C(=O)c3ccc(C)o3)=C(O)C(=O)N2c2nccs2)c1` (stereo unspecified), for which the EC50 is > 11 µM (inactive).

With `CCOc1ccc(-c2nn(-c3ccccc3)cc2/C=C2\SC(=S)N(C3CCS(=O)(=O)C3)C2=O)cc1` (stereo unspecified), the EC50 was > 11 µM (inactive).

Consider `COc1ccc(C2C(C(=O)c3ccco3)=C(O)C(=O)N2c2nnc(C)s2)cc1` (stereo unspecified), for which the EC50 is > 11 µM (inactive).

`CCc1ccc(/C=C2/SC(=S)N(CCC(=O)Nc3cccnc3)C2=O)cc1`: the EC50 is > 11 µM (inactive).

For `COc1cc(/C=N\Nc2ccc([N+](=O)[O-])cc2)ccc1OCC(=O)Nc1ccc(C)c(C)c1`, the EC50 is > 11 µM (inactive).

In the case of `COc1cc(C(c2c(C)[nH][nH]c2=O)c2c(C)[nH][nH]c2=O)cc([N+](=O)[O-])c1O`, the EC50 is > 11 µM (inactive).

As for `Cc1ccc(NC(=O)CSc2nnc(N)s2)cc1S(=O)(=O)N1CCOCC1`, the EC50 was > 11 µM (inactive).

As to `O=C(O)c1cc(O)c2c(c1)[C@H]([C@H]1c3cc(C(=O)O)cc(O)c3C(=O)c3c(O[C@@H]4O[C@H](CO)[C@@H](O)[C@H](O)[C@H]4O)cccc31)c1cccc(OC3O[C@H](CO)[C@@H](O)[C@H](O)[C@H]3O)c1C2=O` (stereo partly specified), the EC50 was > 11 µM (inactive).

For the compound `CSc1nnc(N2C(=O)C(O)=C(C(=O)c3ccco3)C2c2ccccc2)s1` (stereo unspecified), the EC50 is > 11 µM (inactive).

On to `CCOC(=O)c1ccc(-n2c(CCC(=O)O)ccc2-c2ccc(F)cc2)cc1`, for which the EC50 is > 11 µM (inactive).

Take `O=C(O)c1cc(-c2ccc(/C=N/Nc3ccc([N+](=O)[O-])cn3)o2)ccc1Cl`: the EC50 was > 11 µM (inactive).

`COc1ccc(NS(=O)(=O)c2ccc3c(c2)[C@H]2C=CC[C@H]2[C@@H](c2ccc(C(=O)O)cc2)N3)cc1`: the EC50 was > 11 µM (inactive).

`COc1ccc(OC)c(S(=O)(=O)Nc2ccc(O)c(Sc3ncn[nH]3)c2)c1`: the EC50 is > 11 µM (inactive).

In the case of `COc1cc(C2C(C#N)=C(N)OC3=C2C(=O)CCC3)cc2c1OCO2` (stereo unspecified), the EC50 is > 11 µM (inactive).

As for `CN1C(=O)C(=Cc2sc(=O)n(-c3ccccc3)c2N2CCCCC2)C(=O)N(C)C1=O`, the EC50 was > 11 µM (inactive).

With `O=C(O)c1ccc2c(c1)C(=O)/C(=C\c1ccco1)C2=O`, the EC50 was > 11 µM (inactive).

As for `Cc1ccc(N2C(=O)NC(=O)/C(=C/c3cnn(-c4ccc(C)cc4)c3)C2=O)cc1`, the EC50 was > 11 µM (inactive).

Turning to `N#C/C(=N\Nc1ccc(Cl)cc1)C(=O)c1ccsc1`, the EC50 was > 11 µM (inactive).

For the compound `CCOC(=O)Cc1csc(NC(=O)c2sc3nc4cc(C)ccc4cc3c2N)n1`, the EC50 is > 11 µM (inactive).

For the compound `O=C1C(=Cc2cccn2-c2ccccc2)C(=O)c2ccccc21`, the EC50 was > 11 µM (inactive).

Turning to `Cc1ccc2nc3sc(C(=O)N4CCCc5ccccc54)c(N)c3cc2c1`, the EC50 is > 11 µM (inactive).

For the compound `COc1cccc(CN2C(=O)C3(C(C#N)=C(N)OC4=C3C(=O)CCC4)c3ccccc32)c1` (stereo unspecified), the EC50 was > 11 µM (inactive).

Turning to `COc1ccc(-c2cc(C(=O)N/N=C(\C)c3ccco3)c3ccccc3n2)c(OC)c1`, the EC50 was > 11 µM (inactive).

With `COc1ccccc1NC(=O)c1sc2nc(Cc3ccccc3)cc(C(F)(F)F)c2c1N`, the EC50 was > 11 µM (inactive).

As for `NS(=O)(=O)c1ccc(-c2cccc(/C=C3\SC(=O)NC3=O)c2)cc1`, the EC50 is > 11 µM (inactive).

For the compound `COc1ccc(N2C(=O)NC(=O)/C(=C/c3ccc([N+](=O)[O-])s3)C2=O)cc1`, the EC50 is > 11 µM (inactive).

Turning to `CCOc1cc(/C=C2\C(=O)NN(c3ccccc3)C2=O)cc([N+](=O)[O-])c1O`, the EC50 is > 11 µM (inactive).

Turning to `CCOC(=O)C1Nc2ccc(C)cc2C2C=CCC12` (stereo unspecified), the EC50 was > 11 µM (inactive).

A word on the EC50: it is the concentration needed to bring the measured effect to its halfway point.
